“Also recorded” adds a separate entry of the source. Blank lines part the entries; values can stand above or below the compound they belong to.
Tests used:
A. thaliana [1] = assay: Combined treatment of Phe-analogues and glyphosate, A. thaliana root growth / seed-germination; type: in vivo, Arabidopsis thaliana
Experimental: FIG. 9 is an image depicting the effects of Phe-analogs, glyphosate and combination thereof on Arabidopsis thaliana (var. Columbia) seed-germination and seedlings establishment. “ZYX1”=m-Tyr (3′ OH phenylalanine); “ZYX2”=3′ fluoro phenylalanine; “RoundUp”=Glyphosate; “uM”=μicromolar.
For example, when inhibition of weed growth (e.g., A. thaliana) is achieved using an amount of 100 μM of glyphosate (based on TAIR database) when used in the absence of the effective amount of the compound depicted by Formula A, I or II, the concentration of glyphosate required for achieving the same growth inhibition of the weed in the presence of the effective amount of the compound depicted by Formula A, I or II is 10 μM of glyphosate, i.e., a reduction of about 90% in the concentration of glyphosate (e.g., using the ZYX1 compound as shown in FIG. 9).
Compared to herbicides (e.g., glyphosate) applied alone, the performance of herbicide mixtures can be either synergistic, or additive. Additivity is the combined action, which is equal to the total response predicted by taking into account the response of each herbicide applied alone. Synergism is the combined action of two herbicides where the observed response to their joint application is greater than the response predicted by Colby method [S. R. COLBY. Calculating Synergistic and Antagonistic Responses of Herbicide Combinations. […]

[2] = system: glyphosate resistant Lolium rigidum Gaudin; assay: Combined treatment on glyphosate resistant weed, seed-germination and seedlings establishment; type: in vivo
Text: FIG. 10 is an image depicting the effects of Phe-analogs, on glyphosate resistant Lolium rigidum Gaudin (weed) seed-germination and seedlings establishment. ZYX1=m-Tyr; “RoundUp”=Glyphosate; “uM”=μicromolar.
In recent years, Lolium rigidum Gaudin (annual ryegrass) resistance to a number of herbicides has started to spread worldwide.

A. thaliana [3] = conditions: absence of Formula A, I or II compound; based on TAIR database; cited from earlier work
[4] = system: Arabidopsis thaliana (var. Columbia); assay: Arabidopsis seed-germination and seedlings establishment on MS medium with Phe-analogues; type: in vivo; conditions: for appearance of treated seedlings (cotyledons, leaves): seedlings on MS medium with analogue; for effect on seed-germination: seeds sown on MS medium with 0-80 μM analogue
Text: FIGS. 2A-D are images depicting the effects of m-Tyr and several other phenylalanine (Phe)-analogs, modified in the meta position of the R-group, on Arabidopsis thaliana (var. Columbia) seed-germination and seedlings establishment. FIG. 2A—m-Tyr; FIG. 2B—Phe-analog “CH3”; FIG. 2C—Phe-analog “F”; FIG. 2D—Phe-analog “CF3”.
The germination of Arabidopsis thaliana plants is inhibited by the Phe-analogues of some embodiments of the invention—The efficiency of the developed compounds modified at the ‘meta’ position of the phenyl ring (FIG. 1) were analysed on Arabidopsis thaliana (var. Columbia). Following […] for 5 days at 4° C., Arabidopsis seeds were sown on Murashige-Skoog medium (MS) supplemented with increased concentrations (0-80 μM) of different Phe-analogues (in which “Y” was either “CH3”, “F” or “CF3”; see, FIG. 1). […] It should be noted that many more phe-analogues can be easily synthesized chemically based on the present teachings.

Synechocystis PCC 6803 = assay: Growth inhibition / bleaching of cyanobacteria culture (absorbance OD=730, colonies on agar); type: cell-based; conditions: for effect on growth / killing of the cyanobacteria: water samples, OD=730
Experimental: FIGS. 3A-B depict the inhibition of cyanobacteria by the phenylalanine analogue of some embodiments of the invention (“F”). FIG. 3A—a graph depicting the inhibition of growth of cyanobacteria Synechocystis PCC 6803 by increasing concentrations of the phenylalanine analogue of some embodiments of the invention. FIG. 3B—raw data of the results shown in FIG. 3A as detected after 150 hours.
(§1) FIGS. 5A-E depict the effect of m-Tyr on killing cyanobacteria Microcystis aeruginosa (FIGS. 5A-B) and Synechocystis PCC 6803 (FIGS. 5C-E) from water samples. FIG. 5A is a graph depicting the effects of m-Tyr on lake Kinneret samples containing the highly toxic cyanobacteria, Microcystis aeruginosa. The tests were performed with samples collected from lake Kinneret, that are contaminated by its native toxic cyanobacteria Microcystis aeruginosa, in the absence (0) or presence of various m-Tyr concentrations (1-20 μM) as indicated. […] The growth rate was determined by the culture absorbance at OD=730. FIG. 5B—raw data of the water samples used in the experiment shown in FIG. 5A, in the presence of the indicated concentrations of m-Tyr. FIG. 5C—a graph depicting the effects of m-Tyr on the cyanobacteria, Synechocystis PCC 6803. The tests were performed with samples of Synechocystis PCC 6803, in the absence (0) or presence of various m-Tyr concentrations (1-1000 μM) as indicated. […] The growth rate was determined by the culture absorbance at OD=730. FIG. 5D—raw data of the water samples used in the experiment shown in FIG. 5C, in the presence of the indicated concentrations of m-Tyr. FIG. 5E—The cell mortality of the cyanobacteria Synechocystis PCC 6803 was evaluated by the numbers of colonies appearing on Agar plates.

[5] = type: physicochemical
Text: Although m-Tyr is an efficient allelopathic agent, its direct application for agriculture use is limited due to its instability in soil and aqueous environment [Movellan, J. et al. Synthesis and evaluation as biodegradable herbicides of halogenated analogs of L-meta-tyrosine. Environ. Sci. Pollut. Res. 21, 4861-4870 (2014)].

Microcystis aeruginosa = assay: Lake Kinneret water samples containing toxic cyanobacteria, bleaching and growth (OD=730); type: cell-based
Experimental: as §1, with “aeruginosa.” for “aeruginosa. The tests were performed with samples collected from lake Kinneret, that are contaminated by its native toxic cyanobacteria Microcystis aeruginosa, in the absence (0) or presence of various m-Tyr concentrations (1-20 μM) as indicated.”

E. coli = assay: Antibacterial assay, bacterial growth by optical density (OD=600 nm); type: cell-based, Escherichia coli; conditions: 0-1000 μM
Experimental: (§2) FIGS. 6A-B depict the effects of m-Tyr on the growth rates of model gram-positive and gram-negative bacteria. Bacterial growth was determined using optical density data (OD=600 nm) of E. coli and B. subtilis cultures at different time points and at different m-Tyr concentrations (0-1000 μM, the color index for m-Tyr concentration used is in the right side of each panel). FIG. 6A—E. coli; FIG. 6B—Bacillus subtilis; Note that cell growth of E. coli and Bacillus subtilis was not affected by m-Tyr, even when used at high concentrations of 1000 micromolar.

Bacillus subtilis = assay: as above; type: cell-based; conditions: 0-1000 μM
Experimental: as §2

yeast = assay: Sensitivity of yeast cultures; type: cell-based; conditions: even at concentrations as high as 15 mM; data not shown
algae (chlamydomonas) = assay: Inhibition of algae; type: cell-based; conditions: even in the millimolar range
algae (Chlorella) = assay: Effect on algae; type: cell-based
Text: (§3) Thus, m-Tyr and its related Phe-analogues represent the first selective agents against cyanoblooming, a serious threat to both marine ecology and global economy.

marine bacteria = assay: Effect on marine bacteria; type: cell-based
Text: as §3

cyanobacteria = assay: Viability experiments / toxicity to cyanobacteria; type: cell-based
Text: as §3

[6] = system: Arabidopsis thaliana (var. Columbia); conditions: Bertin et al. 2007; cited from earlier work
[7] = Movellan et al. 2014; cited from earlier work

Compound: O=C(O)CNCP(=O)(O)O [glyphosate]
- concentration of glyphosate required for the same growth inhibition in combination (A. thaliana [1]; in the presence of the effective amount of the compound (ZYX1, FIG. 9)): 10 µM
- response of glyphosate resistant Lolium, applied separately ([2]; FIG. 10): resistance
- elevated glyphosate concentration to which the Lolium variety is resistant ([2]; local Israeli variety of Lolium): 60 folds of the recommended concentration
- amount of glyphosate achieving inhibition of weed growth, used alone (A. thaliana [3]): 100 µM

- stability compared with the meta tyrosine molecule [5]: more stable
Compound: N[C@@H](Cc1cccc(F)c1)C(=O)O [F, 3′ fluoro phenylalanine]
- appearance of treated seedlings (cotyledons, leaves) [4]: white cotyledons and yellowish leaves
- effect on seed-germination [4]: strongly affected
- low concentration at which inhibition of growth rate is evident (Synechocystis PCC 6803; culture absorbance at OD=730): 6.25 µM
- bleaching of the cyanobacteria culture (Synechocystis PCC 6803; increasing concentrations, 0 to 50 μM, FIG. 3B after 150 hours): bleaching of the culture
- effect on growth / killing of the cyanobacteria (Synechocystis PCC 6803): effective; also recorded: very strong effect

Compound: N[C@@H](Cc1cccc(O)c1)C(=O)O [m-Tyr, 3-hydroxyphenylalanine]
- appearance of treated seedlings (cotyledons, leaves) [4]: white cotyledons and yellowish leaves
- chloroplast morphology, microscopic analysis ([4]; seedlings treated with 10 μM, data not shown): altered chloroplast morphologies and less grana lamella
- effect on seed-germination [4]: strongly affected
- effect on growth / killing of the cyanobacteria (Synechocystis PCC 6803; listed as meta tyrosine): effective
- effect on growth / killing of the cyanobacteria (Microcystis aeruginosa; OD=730): very strong effect
- effect on growth / killing of the cyanobacteria (Microcystis aeruginosa; OD=730, listed as meta tyrosine): effective
- bleaching of the cyanobacteria culture (Microcystis aeruginosa; increasing concentrations (printed 0 mM to 10 mM)): bleaching of the culture
- effect on cell growth (E. coli): did not affect cell growth; also recorded: no (or very little) effect; also recorded: not affected
- effect on cell growth (Bacillus subtilis): did not affect cell growth; also recorded: no (or very little) effect; also recorded: not affected
- sensitivity of yeast cultures (yeast): not sensitive
- inhibition of algae (algae (chlamydomonas)): no inhibition effects
- effect on algae (algae (Chlorella)): no obvious effects
- effect on marine bacteria (marine bacteria): no obvious effects
- reduction in the concentration of glyphosate (A. thaliana [1]; combination of ZYX1 with glyphosate, FIG. 9): about 90%
- effect on / toxicity to cyanobacteria (cyanobacteria; very low μM range): highly susceptible; also recorded: strongly affecting; also recorded: toxic
- concentration as low as which addition to the growth media induces cell death (cyanobacteria; viability experiments): 0.5 µM
- phytotoxic activity (inhibition of germination of angiosperms, root growth) [6]: promising phytotoxic activity
- stability in soil and aqueous environment [7]: instability

Reference: US20240081329A1, “NON-PROTEIN PHENYLALANINE ANALOGUES FOR INHIBITING CYANOBACTERIA AND PLANT GROWTH” (YISSUM RESEARCH DEVELOPMENT COMPANY OF THE HEBREW …, priority 2016, published 2024)
